Test results reported in ChEMBL document CHEMBL4706692, “CC-90009: A Cereblon E3 Ligase Modulating Drug That Promotes Selective Degradation of GSPT1 for the Treatment of Acute Myeloid Leukemia” (J Med Chem, 2021).
The source made the active and inactive calls. The rule behind the calls is not given here.

Assays:
THLE-2 = assay: Cytotoxicity against human THLE-2 cells assessed as cell viability incubated for 72 hrs by cell titer glo assay; format: cell-based; details: THLE-2, 72 h
KG-1 = assay: Antiproliferative activity against human KG-1 cells assessed as reduction in cell viability incubated for 72 hrs by cell titer glo assay; format: functional, cell-based; details: KG-1, 72 h
[1] = Selectivity index, ratio of IC50 for cytotoxicity against human THLE-2 cells to IC50 for antiproliferative activity against human KG-1 cells
[2] = target: T1, Protein cereblon/Eukaryotic peptide chain release factor GTP-binding subunit ERF3A (Homo sapiens) (UniProt Q96SW2+P15170); assay: Protac activity at CRBN/GSPT1 in human KG-1 cells assessed as GSPT1 degradation at 1 uM incubated for 4 hrs by western blot analysis; format: cell-based
T1 sequence (P15170 whole entry, looked up): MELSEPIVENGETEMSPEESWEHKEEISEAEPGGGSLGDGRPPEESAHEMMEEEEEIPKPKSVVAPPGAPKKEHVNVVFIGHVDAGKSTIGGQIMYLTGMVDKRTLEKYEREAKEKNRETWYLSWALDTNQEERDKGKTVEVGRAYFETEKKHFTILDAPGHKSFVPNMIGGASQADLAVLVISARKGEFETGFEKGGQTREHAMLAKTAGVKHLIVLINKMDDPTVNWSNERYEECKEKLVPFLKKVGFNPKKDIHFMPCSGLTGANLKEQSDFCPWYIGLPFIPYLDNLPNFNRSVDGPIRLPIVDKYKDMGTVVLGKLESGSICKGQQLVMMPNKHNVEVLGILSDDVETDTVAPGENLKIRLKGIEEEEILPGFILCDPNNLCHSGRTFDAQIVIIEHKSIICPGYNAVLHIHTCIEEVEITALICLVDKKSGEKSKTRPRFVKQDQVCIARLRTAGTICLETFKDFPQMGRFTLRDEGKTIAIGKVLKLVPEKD
T1 sequence (Q96SW2 whole entry, looked up): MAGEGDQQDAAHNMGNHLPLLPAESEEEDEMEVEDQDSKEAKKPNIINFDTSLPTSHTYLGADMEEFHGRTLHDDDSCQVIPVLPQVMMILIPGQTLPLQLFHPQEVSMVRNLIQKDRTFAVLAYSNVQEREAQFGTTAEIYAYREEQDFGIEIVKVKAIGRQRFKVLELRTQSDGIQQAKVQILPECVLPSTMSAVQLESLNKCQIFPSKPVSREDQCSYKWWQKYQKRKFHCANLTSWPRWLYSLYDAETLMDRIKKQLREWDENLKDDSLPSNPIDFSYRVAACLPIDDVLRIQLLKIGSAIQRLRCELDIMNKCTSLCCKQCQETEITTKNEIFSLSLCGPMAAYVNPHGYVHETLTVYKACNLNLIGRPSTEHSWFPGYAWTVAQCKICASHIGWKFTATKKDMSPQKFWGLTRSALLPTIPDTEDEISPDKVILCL

[3] = MRT in cynomolgus monkey at 1 mg/kg, iv administered as bolus dose; format: ADME, organism-based, Macaca fascicularis; details: in vivo
[4] = target: Solute carrier organic anion transporter family member 1B1 (Homo sapiens, UniProt Q9Y6L6); assay: Inhibition of OATP1B1 (unknown origin) at upto 3 uM
[5] = Clearance in CD1 mouse at 2 mg/kg, iv administered as bolus dose; format: ADME, organism-based; details: in vivo
[6] = Terminal half life in iv dosed acute myeloid leukemia patient; format: ADME, organism-based; details: human, in vivo, read-out: beta t1/2 (converted)
[7] = target: Solute carrier family 22 member 2 (Homo sapiens, UniProt O15244); assay: Inhibition of OCT2 (unknown origin) at upto 3 uM
[8] = Total clearance in iv dosed acute myeloid leukemia patient; format: ADME, organism-based; details: human, in vivo
[9] = target: T1, Protein cereblon/Eukaryotic peptide chain release factor GTP-binding subunit ERF3A (Homo sapiens); assay: Protac activity at CRBN/GSPT1 in CD3+ T cells derived from patients assessed as reduction of GSPT1 levels in peripheral blood blast administered intravenously for 5 days by flow cytometry analysis; format: cell-based; details: CD3-positive T cell, time 5.0 day
[10] = target: T1, Protein cereblon/Eukaryotic peptide chain release factor GTP-binding subunit ERF3A (Homo sapiens); assay: Protac activity at CRBN/GSPT1 in human KG-1 cells assessed as GSPT1 degradation at 1 uM incubated for 4 hrs in presence of proteasome inhibitor bortezomib by western blot analysis; format: cell-based
[11] = target: T1, Protein cereblon/Eukaryotic peptide chain release factor GTP-binding subunit ERF3A (Homo sapiens); assay: Protac activity at CRBN/GSPT1 in human DF15 cells assessed as maximum GSPT1 degradation incubated for 4 hrs by hunter detection reagent based luminescence assay relative to control; format: cell-based
[12] = MRT in CD1 mouse at 2 mg/kg, iv administered as bolus dose; format: ADME, organism-based; details: in vivo
[13] = target: Muscarinic acetylcholine receptor M1 (Homo sapiens) (UniProt P11229); assay: Inhibition of human muscarinic M1 receptor at 10 uM relative to control
[14] = target: Solute carrier organic anion transporter family member 1B3 (Homo sapiens, UniProt Q9NPD5); assay: Inhibition of OATP1B3 (unknown origin) at upto 3 uM
Sequence of Solute carrier organic anion transporter family member 1B3 (Q9NPD5 whole entry): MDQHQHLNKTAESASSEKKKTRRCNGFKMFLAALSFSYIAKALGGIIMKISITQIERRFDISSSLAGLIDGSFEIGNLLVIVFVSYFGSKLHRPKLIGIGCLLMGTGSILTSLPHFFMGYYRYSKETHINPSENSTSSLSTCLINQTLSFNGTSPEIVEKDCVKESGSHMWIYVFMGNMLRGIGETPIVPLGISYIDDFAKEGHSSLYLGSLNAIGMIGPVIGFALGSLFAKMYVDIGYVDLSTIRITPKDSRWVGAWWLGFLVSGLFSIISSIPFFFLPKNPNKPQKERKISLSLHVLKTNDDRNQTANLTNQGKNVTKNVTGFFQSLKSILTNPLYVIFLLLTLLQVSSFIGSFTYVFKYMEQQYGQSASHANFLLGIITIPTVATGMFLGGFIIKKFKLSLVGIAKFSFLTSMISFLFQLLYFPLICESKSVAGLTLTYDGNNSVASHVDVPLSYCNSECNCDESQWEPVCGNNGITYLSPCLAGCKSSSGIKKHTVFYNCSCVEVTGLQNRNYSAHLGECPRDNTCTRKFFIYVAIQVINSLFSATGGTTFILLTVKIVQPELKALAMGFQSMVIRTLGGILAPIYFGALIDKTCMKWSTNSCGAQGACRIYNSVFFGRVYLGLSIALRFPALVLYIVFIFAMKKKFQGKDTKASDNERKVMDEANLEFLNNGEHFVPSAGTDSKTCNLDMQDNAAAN

[15] = target: T1, Protein cereblon/Eukaryotic peptide chain release factor GTP-binding subunit ERF3A (Homo sapiens); assay: Protac activity at CRBN/GSPT1 in human DF-15 cells assessed as in depth GSPT1 degradation incubated for 20 hrs by hunter detection reagent based luminescence assay relative to control; format: cell-based; details: DF15
CYP2C9 = CYP2C9 (Homo sapiens, UniProt P11712); assay: Inhibition of CYP2C9 (unknown origin) at 2.5 uM relative to control; format: ADME
[16] = target: Protein cereblon/Zinc finger protein Aiolos (Homo sapiens, UniProt Q96SW2+Q9UKT9); assay: Protac activity at CRBN/IKZF3 (unknown origin) assessed as IKZF3 degradation; format: protein assay
Sequence of Protein cereblon/Zinc finger protein Aiolos (Q96SW2 whole entry): as the sequence (Q96SW2 whole entry, looked up) above
Sequence of Protein cereblon/Zinc finger protein Aiolos (Q9UKT9 whole entry): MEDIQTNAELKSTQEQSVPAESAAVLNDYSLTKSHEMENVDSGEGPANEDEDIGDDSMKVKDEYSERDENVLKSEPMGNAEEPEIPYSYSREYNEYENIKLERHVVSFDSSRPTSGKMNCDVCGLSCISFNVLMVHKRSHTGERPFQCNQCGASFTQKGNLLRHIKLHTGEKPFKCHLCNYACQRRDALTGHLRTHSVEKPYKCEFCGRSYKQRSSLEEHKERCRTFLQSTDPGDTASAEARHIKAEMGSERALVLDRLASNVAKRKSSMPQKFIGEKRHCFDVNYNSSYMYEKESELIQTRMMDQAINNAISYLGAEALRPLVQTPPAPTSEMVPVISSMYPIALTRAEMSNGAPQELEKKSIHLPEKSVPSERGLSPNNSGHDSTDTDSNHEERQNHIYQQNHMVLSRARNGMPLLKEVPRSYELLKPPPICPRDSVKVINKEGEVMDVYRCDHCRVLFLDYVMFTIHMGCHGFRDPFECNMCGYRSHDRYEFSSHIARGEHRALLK

[17] = target: Voltage-gated inwardly rectifying potassium channel KCNH2 (Homo sapiens, UniProt Q12809); assay: Inhibition of human ERG
Sequence of Voltage-gated inwardly rectifying potassium channel KCNH2 (Q12809 whole entry): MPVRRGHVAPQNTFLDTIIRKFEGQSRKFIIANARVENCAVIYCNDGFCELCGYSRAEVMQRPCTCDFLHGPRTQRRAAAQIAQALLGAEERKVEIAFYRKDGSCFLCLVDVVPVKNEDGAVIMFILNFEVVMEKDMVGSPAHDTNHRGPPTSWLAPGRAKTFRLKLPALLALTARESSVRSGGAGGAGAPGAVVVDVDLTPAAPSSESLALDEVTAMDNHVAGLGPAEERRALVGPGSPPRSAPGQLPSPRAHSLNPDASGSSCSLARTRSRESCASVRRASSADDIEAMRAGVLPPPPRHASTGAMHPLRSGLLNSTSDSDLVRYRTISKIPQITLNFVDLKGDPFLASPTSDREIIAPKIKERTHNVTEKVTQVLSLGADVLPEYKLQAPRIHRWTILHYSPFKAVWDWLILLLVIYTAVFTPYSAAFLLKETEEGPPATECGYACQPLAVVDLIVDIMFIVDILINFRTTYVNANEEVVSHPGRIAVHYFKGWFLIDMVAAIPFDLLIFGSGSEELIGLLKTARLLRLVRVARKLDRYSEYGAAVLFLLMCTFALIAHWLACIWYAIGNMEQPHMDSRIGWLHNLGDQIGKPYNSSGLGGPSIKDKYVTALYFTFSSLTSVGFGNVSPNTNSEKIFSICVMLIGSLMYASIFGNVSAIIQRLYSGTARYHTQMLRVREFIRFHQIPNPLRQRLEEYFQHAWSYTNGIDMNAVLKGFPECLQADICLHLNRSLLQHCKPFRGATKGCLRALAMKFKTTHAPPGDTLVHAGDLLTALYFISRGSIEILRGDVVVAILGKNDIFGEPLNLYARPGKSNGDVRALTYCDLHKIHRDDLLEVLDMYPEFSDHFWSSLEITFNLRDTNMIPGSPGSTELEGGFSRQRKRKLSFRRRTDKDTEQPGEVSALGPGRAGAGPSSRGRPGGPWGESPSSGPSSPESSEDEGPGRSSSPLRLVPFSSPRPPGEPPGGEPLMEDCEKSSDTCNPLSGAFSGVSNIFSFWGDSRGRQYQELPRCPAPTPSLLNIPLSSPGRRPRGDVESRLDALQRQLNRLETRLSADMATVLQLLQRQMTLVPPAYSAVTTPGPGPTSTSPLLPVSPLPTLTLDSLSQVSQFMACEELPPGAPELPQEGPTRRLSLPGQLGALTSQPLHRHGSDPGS

[18] = target: T1, Protein cereblon/Eukaryotic peptide chain release factor GTP-binding subunit ERF3A (Homo sapiens); assay: Protac activity at CRBN/GSPT1 in human KG-1 cells assessed as GSPT1 degradation at 1 uM incubated for 4 hrs in presence of neddylation inhibitor MLN4924 by western blot analysis; format: cell-based
[19] = target: ATP-binding cassette sub-family C member 2 (Homo sapiens, UniProt Q92887); assay: Inhibition of MRP2 (unknown origin) at upto 3 uM
[20] = Volume of distribution at steady state in CD-IGS rat at 2 mg/kg, iv administered as bolus dose; format: ADME, organism-based; details: in vivo, read-out: Vdss
HL-60 [21] = assay: Antitumor activity against human HL-60 cells in xenografted model assessed as reduction in CD33+/CD45+ in bone marrow at 2.5 mg/kg, BID administered for 10 consecutive days relative to control; format: functional; details: HL-60, 240 h, time 10 day
HL-60 [22] = assay: Antitumor activity against human HL-60 cells in xenografted model assessed as reduction in CD33+/CD45+ in bone marrow at 5 mg/kg, BID administered for 5 consecutive days relative to control; format: functional; details: HL-60, 120 h, time 5 day
[23] = target: Solute carrier family 22 member 6 (Homo sapiens, UniProt Q4U2R8); assay: Inhibition of OAT1 (unknown origin) at upto 3 uM
Sequence of Solute carrier family 22 member 6 (Q4U2R8 whole entry): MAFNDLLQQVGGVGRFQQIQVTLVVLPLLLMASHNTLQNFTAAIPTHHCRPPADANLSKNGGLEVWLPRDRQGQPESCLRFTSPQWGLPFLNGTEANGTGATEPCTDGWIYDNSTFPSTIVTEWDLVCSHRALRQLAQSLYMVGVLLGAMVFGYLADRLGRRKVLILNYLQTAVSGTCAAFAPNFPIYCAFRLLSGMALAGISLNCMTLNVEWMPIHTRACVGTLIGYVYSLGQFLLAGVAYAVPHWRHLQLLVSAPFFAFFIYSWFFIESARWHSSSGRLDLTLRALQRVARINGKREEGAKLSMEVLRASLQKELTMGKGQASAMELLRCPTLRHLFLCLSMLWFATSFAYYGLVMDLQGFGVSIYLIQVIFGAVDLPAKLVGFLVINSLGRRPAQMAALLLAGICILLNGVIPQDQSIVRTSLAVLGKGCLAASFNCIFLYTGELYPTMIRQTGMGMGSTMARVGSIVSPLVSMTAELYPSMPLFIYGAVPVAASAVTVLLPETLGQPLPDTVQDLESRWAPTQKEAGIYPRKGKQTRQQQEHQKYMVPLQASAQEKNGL

[24] = target: T1, Protein cereblon/Eukaryotic peptide chain release factor GTP-binding subunit ERF3A (Homo sapiens); assay: Protac activity at CRBN/GSPT1 in human KG-1 cells assessed as GSPT1 degradation by measuring accumulation of ATF4 at 200 uM incubated for 4 hrs by western blot analysis; format: cell-based
[25] = Volume of distribution at steady state in CD1 mouse at 2 mg/kg, iv administered as bolus dose; format: ADME, organism-based; details: in vivo, read-out: Vdss
Cereblon/Ikaros = Cereblon/Ikaros (Homo sapiens, UniProt Q13422+Q96SW2); assay: Protac activity at CRBN/IKZF1 (unknown origin) assessed as IKZF1 degradation; format: protein-complex assay
Sequence of Cereblon/Ikaros (Q96SW2 whole entry): as the sequence (Q96SW2 whole entry, looked up) above
Sequence of Cereblon/Ikaros (Q13422 whole entry): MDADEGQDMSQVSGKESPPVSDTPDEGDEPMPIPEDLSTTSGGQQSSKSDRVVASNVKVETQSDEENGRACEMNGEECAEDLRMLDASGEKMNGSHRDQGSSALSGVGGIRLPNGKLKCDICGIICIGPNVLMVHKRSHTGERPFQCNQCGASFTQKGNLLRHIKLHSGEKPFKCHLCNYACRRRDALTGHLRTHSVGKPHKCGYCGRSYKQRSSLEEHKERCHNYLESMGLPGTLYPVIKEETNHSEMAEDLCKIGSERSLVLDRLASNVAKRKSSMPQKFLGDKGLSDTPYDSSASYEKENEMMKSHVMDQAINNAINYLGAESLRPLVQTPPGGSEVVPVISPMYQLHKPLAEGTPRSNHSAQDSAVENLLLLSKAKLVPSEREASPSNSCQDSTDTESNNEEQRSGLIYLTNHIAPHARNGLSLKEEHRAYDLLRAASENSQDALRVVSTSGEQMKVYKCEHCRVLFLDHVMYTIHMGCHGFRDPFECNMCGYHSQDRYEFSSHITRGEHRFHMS

[26] = target: T1, Protein cereblon/Eukaryotic peptide chain release factor GTP-binding subunit ERF3A (Homo sapiens); assay: Protac activity at CRBN/GSPT1 in human DF-15 cells assessed as GSPT1 degradation at 0.2 to 3 uM incubated for 4 to 6 hrs by Incell-hunter detection reagent based luminescence assay relative to control; format: cell-based; details: DF15, dose 0.2-3 µM, time 4-6 hrs
[27] = target: T1, Protein cereblon/Eukaryotic peptide chain release factor GTP-binding subunit ERF3A (Homo sapiens); assay: Protac activity at CRBN/GSPT1 in human DF-15 cells assessed as maximum GSPT1 degradation incubated for 20 hrs by hunter detection reagent based luminescence assay relative to control; format: cell-based; details: DF15
[28] = target: Muscarinic acetylcholine receptor M2 (Homo sapiens) (UniProt P08172); assay: Inhibition of human muscarinic M2 receptor at 10 uM relative to control
[29] = target: T1, Protein cereblon/Eukaryotic peptide chain release factor GTP-binding subunit ERF3A (Homo sapiens); assay: Protac activity at CRBN/GSPT1 in human NB-4 cells assessed as induction of GSPT1 degradation at 0.001 to 1 uM incubated for 4 hrs by western blot analysis; format: cell-based; details: dose 0.001-1 µM
[30] = target: T1, Protein cereblon/Eukaryotic peptide chain release factor GTP-binding subunit ERF3A (Homo sapiens); assay: Protac activity at CRBN/GSPT1 in CD3+ T cells derived from patients assessed as reduction of GSPT1 levels in T cells administered intravenously for 5 days by flow cytometry analysis; details: CD3-positive T cell, time 5.0 day
[31] = Clearance in cynomolgus monkey at 1 mg/kg, iv administered as bolus dose; format: ADME, organism-based, Macaca fascicularis; details: in vivo
[32] = Toxicity in cynomolgus monkey assessed as effect on cardiovascular system; set-up: species or system Macaca fascicularis; details: in vivo
[33] = Volume of distribution at steady state in cynomolgus monkey at 1 mg/kg, iv administered as bolus dose; format: ADME, organism-based, Macaca fascicularis; details: in vivo, read-out: Vdss
[34] = target: Broad substrate specificity ATP-binding cassette transporter ABCG2 (Homo sapiens, UniProt Q9UNQ0); assay: Inhibition of BCRP (unknown origin) at upto 3 uM
Cytochrome P450 2C19 = Cytochrome P450 2C19 (Homo sapiens, UniProt P33261); assay: Inhibition of CYP2C19 (unknown origin); format: ADME
[35] = target: T1, Protein cereblon/Eukaryotic peptide chain release factor GTP-binding subunit ERF3A (Homo sapiens); assay: Protac activity at CRBN/GSPT1 in human KG-1 cells assessed as GSPT1 degradation by measuring accumulation of ATF3 at 200 uM incubated for 4 hrs by western blot analysis; format: cell-based
[36] = Volume of distribution in iv dosed acute myeloid leukemia patient; format: ADME, organism-based; details: human, in vivo
[37] = target: T1, Protein cereblon/Eukaryotic peptide chain release factor GTP-binding subunit ERF3A (Homo sapiens); assay: Protac activity at CRBN/GSPT1 in CD3+ T cells derived from patients assessed as reduction of GSPT1 levels at 2.4 mg, iv administered for 5 days by flow cytometry analysis relative to control; format: organism-based; set-up: scale not given: the % may be the effect or the level left; details: CD3-positive T cell, time 5.0 day
[38] = target: Multidrug and toxin extrusion protein 2 (Homo sapiens, UniProt Q86VL8); assay: Inhibition of MATE2 (unknown origin) at upto 3 uM
[39] = target: Organic anion transporter 3 (Homo sapiens, UniProt Q8TCC7); assay: Inhibition of OAT3 (unknown origin) at upto 3 uM
Sequence of Organic anion transporter 3 (Q8TCC7 whole entry): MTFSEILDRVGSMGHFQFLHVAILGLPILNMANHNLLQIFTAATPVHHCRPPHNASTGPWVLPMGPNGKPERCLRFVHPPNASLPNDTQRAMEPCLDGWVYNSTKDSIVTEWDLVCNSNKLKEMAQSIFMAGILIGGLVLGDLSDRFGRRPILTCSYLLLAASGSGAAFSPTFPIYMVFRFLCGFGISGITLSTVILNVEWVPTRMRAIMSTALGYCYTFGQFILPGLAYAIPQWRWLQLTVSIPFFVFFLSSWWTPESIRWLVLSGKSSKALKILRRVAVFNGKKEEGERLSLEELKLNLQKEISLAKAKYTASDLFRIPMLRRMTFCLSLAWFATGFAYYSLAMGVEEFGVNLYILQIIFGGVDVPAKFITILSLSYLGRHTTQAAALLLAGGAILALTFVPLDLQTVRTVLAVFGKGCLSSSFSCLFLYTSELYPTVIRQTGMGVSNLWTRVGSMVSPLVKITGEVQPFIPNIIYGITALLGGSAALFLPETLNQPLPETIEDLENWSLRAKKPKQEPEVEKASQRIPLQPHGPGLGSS

[40] = target: T1, Protein cereblon/Eukaryotic peptide chain release factor GTP-binding subunit ERF3A (Homo sapiens); assay: Protac activity at CRBN/GSPT1 in human DF15 cells assessed as in depth GSPT1 degradation incubated for 4 hrs by hunter detection reagent based luminescence assay; format: cell-based
[41] = MRT in CD-IGS rat at 2 mg/kg, iv administered as bolus dose; format: ADME, organism-based; details: in vivo
[42] = Clearance in CD-IGS rat at 2 mg/kg, iv administered as bolus dose; format: ADME, organism-based; details: in vivo
Bone marrow cell = assay: Antiproliferative activity in bone marrow cells derived from AML patients assessed as cell growth inhibition; format: functional, cell-based; details: Homo sapiens
[43] = target: T1, Protein cereblon/Eukaryotic peptide chain release factor GTP-binding subunit ERF3A (Homo sapiens); assay: Protac activity at CRBN/GSPT1 in human KG-1 cells assessed as GSPT1 degradation by measuring accumulation of CHOP at 200 uM incubated for 4 hrs by western blot analysis; format: cell-based
Homo sapiens = organism: Homo sapiens; assay: Inhibition of P-gp (unknown origin) at upto 3 uM; details: dose microM <=3

O=C1CCC(N2Cc3cc(CNC(=O)Nc4ccccc4)ccc3C2=O)C(=O)N1 (stereo not given)
IC50 (THLE-2): 0.06 µM | IC50 (KG-1): 0.015 µM | Ratio IC50 [1]: 4

O=C1CCC(N2Cc3cc(CNC(=O)C(F)(F)c4ccc(Cl)cc4)ccc3C2=O)C(=O)N1 (stereo not given)
Activity [2]: Active | MRT [3]: 4 h | inhibition (INH) [4]: Not Active | clearance [5]: 67.9 mL/min/kg | half-life [6]: 9.3 h | inhibition (INH) [7]: Not Active | clearance [8]: 116 mL/min | Activity [9]: Dose-dependent effect | Activity [10]: inactive | Emax [11]: 51% | MRT [12]: 0.24 h | inhibition [13]: > 50% | inhibition (INH) [14]: Not Active | Activity [15]: Active | inhibition at 2.5 µM (CYP2C9): 41% | EC50 [16]: > 10 µM | IC50 [17]: 5.3 µM | Activity [18]: inactive | inhibition (INH) [19]: Not Active | Vd [20]: 2.2 L/kg | inhibition in vivo at 2.5 mg/kg (HL-60 [21]): 71.5% | inhibition in vivo at 5 mg/kg (HL-60 [22]): 54% | inhibition (INH) [23]: Not Active | Activity [24]: Active | Vd [25]: 1 L/kg | EC50 (Cereblon/Ikaros): > 10 µM | Activity [26]: 75% | Emax [27]: 88% | inhibition [28]: > 50% | Activity [29]: Active | Activity [30]: Dose-dependent effect | clearance [31]: 6 mL/min/kg | Activity [32]: Non-Toxic | Vd [33]: 1.1 L/kg | inhibition (INH) [34]: Not Active | IC50 (Cytochrome P450 2C19): 1.53 µM | Activity [35]: Active | Vd [36]: 61.7 L | Activity [37]: 90% | inhibition (INH) [38]: Not Active | inhibition (INH) [39]: Not Active | Activity [40]: Active | MRT [41]: 1.3 h | clearance [42]: 28.3 mL/min/kg | EC50 (Bone marrow cell): 0.006 µM | Activity [43]: Active | inhibition (Homo sapiens): inactive

O=C1CCC(N2Cc3cc(CNC(=O)C(F)(F)c4ccccc4)ccc3C2=O)C(=O)N1 (stereo not given)
IC50 (THLE-2): > 10 µM | IC50 (KG-1): 0.097 µM | Ratio IC50 [1]: >100

CC(C)(C(=O)NCc1ccc2c(c1)CN(C1CCC(=O)NC1=O)C2=O)c1ccccc1 (stereo not given)
IC50 (THLE-2): > 10 µM | IC50 (KG-1): > 10 µM
